Results published in paper doi:10.1101/2022.07.12.499690v1 (biorxiv, 2022).

Target: PD-L1 (Homo sapiens, UniProt Q9NZQ7)
Experiment: bio-affinity ultrafiltration, UPLC-HRMS
Type: binding
Conditions: […] h incubation with compound; denatured PD-L1 as control

Chain of PD-L1 (Q9NZQ7 19-290): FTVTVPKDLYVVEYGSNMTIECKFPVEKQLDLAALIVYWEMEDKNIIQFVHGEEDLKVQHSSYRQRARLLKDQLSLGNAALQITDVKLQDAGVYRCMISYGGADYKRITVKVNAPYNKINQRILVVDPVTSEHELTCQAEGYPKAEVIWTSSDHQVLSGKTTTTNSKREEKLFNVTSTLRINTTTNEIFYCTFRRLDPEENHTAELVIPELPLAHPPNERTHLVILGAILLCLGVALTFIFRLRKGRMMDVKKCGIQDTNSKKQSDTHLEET

In the case of NCCc1c[nH]c2ccccc12 [tryptamine], the “relative peak area enhancement” value is reported as 40.98%.
